Test results as given in PubChem BioAssay (NCI).
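48-hour exposure; five concentrations; linearly interpolated endpoints. TGI is the concentration that stops growth completely.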

Key:
Test in all cases: inhibition of tumour cell growth, NCI panel, 48 h
[1] = test system: A549 NSCLC
[2] = test system: BT-549 breast
[3] = test system: HCT-116 colon
[4] = test system: KM12 colon
[5] = test system: NCI-H460 lung
[6] = test system: OVCAR-5 ovarian
[7] = test system: SK-MEL-28 melanoma
[8] = test system: U251 CNS
[9] = test system: UACC-257 melanoma
[10] = test system: UACC-62 melanoma

O=[N+]([O-])c1cccnc1-n1cnc2ccccc21
TGI [1]: > 100 µM | TGI [2]: > 100 µM | TGI [3]: > 100 µM | TGI [4]: > 100 µM | TGI [5]: > 100 µM | TGI [6]: > 100 µM | TGI [7]: > 100 µM | TGI [8]: > 100 µM | TGI [9]: > 100 µM | TGI [10]: > 100 µM

O=[N+]([O-])c1ccc(C(Nc2ccccc2)c2ccc3cccnc3c2O)cc1 (stereo not given)
TGI [1]: > 100 µM | TGI [2]: > 70.3 µM | TGI [3]: > 75.3 µM | TGI [4]: > 100 µM | TGI [5]: > 60.6 µM | TGI [6]: > 100 µM | TGI [7]: > 100 µM | TGI [8]: 25.2 µM | TGI [9]: 42.8 µM | TGI [10]: 35.8 µM

c1ccc(-c2nnn(CCN3CCCCC3)n2)cc1
TGI [1]: > 100 µM | TGI [2]: > 100 µM | TGI [3]: > 100 µM | TGI [4]: > 100 µM | TGI [5]: > 100 µM | TGI [6]: > 100 µM | TGI [7]: > 100 µM | TGI [8]: > 100 µM | TGI [9]: > 100 µM | TGI [10]: > 100 µM

CCN(CC)c1ccc2cc(-c3nc4ccccc4c(=O)[nH]3)c(=N)oc2c1
TGI [1]: > 100 µM | TGI [2]: > 100 µM | TGI [3]: > 100 µM | TGI [4]: > 100 µM | TGI [5]: > 100 µM | TGI [6]: > 100 µM | TGI [7]: > 100 µM | TGI [8]: > 100 µM | TGI [9]: > 100 µM | TGI [10]: > 100 µM

NCCOCC(N)C(=O)O (stereo not given)
TGI [1]: > 100 µM | TGI [2]: > 100 µM | TGI [3]: > 100 µM | TGI [4]: > 100 µM | TGI [5]: > 100 µM | TGI [6]: > 100 µM | TGI [7]: > 100 µM | TGI [8]: > 100 µM | TGI [9]: > 100 µM | TGI [10]: > 100 µM

Cc1ccccc1OC(C)C(=O)NN1C(=O)CC(=O)N(c2ccccc2)C1=S (stereo not given)
TGI [1]: > 100 µM | TGI [2]: > 100 µM | TGI [3]: > 100 µM | TGI [4]: > 100 µM | TGI [5]: > 100 µM | TGI [6]: > 100 µM | TGI [7]: > 100 µM | TGI [8]: > 100 µM | TGI [9]: > 100 µM | TGI [10]: > 100 µM

CCOC(=O)c1cnccc1CC1(C#N)c2ccccc2C=CN1C(=O)c1ccccc1 (stereo not given)
TGI [1]: > 100 µM | TGI [2]: > 100 µM | TGI [3]: > 100 µM | TGI [4]: 31.3 µM | TGI [5]: 89.5 µM | TGI [6]: > 100 µM | TGI [7]: > 100 µM | TGI [8]: > 100 µM | TGI [9]: > 100 µM | TGI [10]: 80.9 µM

NC(=O)Cc1nc2c(=O)[nH]cnc2n1C1OC(CO)C(O)C1O (stereo not given)
TGI [1]: > 100 µM | TGI [2]: > 100 µM | TGI [3]: > 100 µM | TGI [4]: > 100 µM | TGI [5]: > 100 µM | TGI [6]: > 100 µM | TGI [7]: > 100 µM | TGI [8]: > 100 µM | TGI [9]: > 100 µM | TGI [10]: > 100 µM

NC1=NCC(CN2CCCC2)O1 (stereo not given)
TGI [1]: > 100 µM | TGI [2]: > 100 µM | TGI [3]: > 100 µM | TGI [4]: > 100 µM | TGI [5]: > 100 µM | TGI [6]: > 100 µM | TGI [7]: > 100 µM | TGI [8]: > 100 µM | TGI [9]: > 100 µM | TGI [10]: > 100 µM

CC(C)C1(O)C(=O)N(c2c(F)c(F)c(F)c(F)c2F)C(=S)N1CCSc1ccccc1 (stereo not given)
TGI [1]: 29.2 µM | TGI [2]: 30.4 µM | TGI [3]: 32.1 µM | TGI [4]: 31.5 µM | TGI [5]: 38.4 µM | TGI [6]: 33 µM | TGI [7]: 30.3 µM | TGI [8]: 32.1 µM | TGI [9]: 32.4 µM | TGI [10]: 30.6 µM

Cc1cc2c(c(=O)n1C)SCC2
TGI [1]: > 100 µM | TGI [2]: > 100 µM | TGI [3]: > 100 µM | TGI [4]: > 100 µM | TGI [5]: > 100 µM | TGI [6]: > 100 µM | TGI [7]: > 100 µM | TGI [8]: > 100 µM | TGI [9]: > 100 µM | TGI [10]: > 100 µM

Nc1ncnc2c1ncn2Cc1cccc(CCl)c1
TGI [1]: 91.4 µM | TGI [2]: 25.8 µM | TGI [3]: 24.6 µM | TGI [4]: 33 µM | TGI [5]: 29.9 µM | TGI [6]: 32.1 µM | TGI [7]: 51.1 µM | TGI [8]: 32.5 µM | TGI [9]: 30.4 µM | TGI [10]: 25.8 µM

COc1ccc2nc3n(c2c1)CCc1cc(OC)c(OC)cc1-3
TGI [1]: > 100 µM | TGI [2]: 99.2 µM | TGI [3]: > 100 µM | TGI [4]: > 100 µM | TGI [5]: > 100 µM | TGI [6]: > 100 µM | TGI [7]: > 100 µM | TGI [8]: > 100 µM | TGI [9]: > 100 µM | TGI [10]: > 100 µM

CSc1ccc(/C=C2\N=C(c3ccccc3)N(/N=C/c3cc4cc(C)ccc4nc3Cl)C2=O)cc1
TGI [1]: 59 µM | TGI [2]: 56.5 µM | TGI [3]: 33.2 µM | TGI [4]: 33.8 µM | TGI [5]: 57.7 µM | TGI [6]: 74.9 µM | TGI [7]: 37.6 µM | TGI [8]: 51.2 µM | TGI [9]: 39.8 µM | TGI [10]: 33.7 µM
